Laboratory results: US6753345B2, “7-hexanolytaxol and methods for preparing the same” (Hauser, Inc., priority 1998, dated 2004)
≈ marks a conversion by molar mass, not a printed value. Where two headings read alike, the source gives them in different places.

Legend:
[1] = system: SW-620; test: SRB cytotoxicity screening assay (Colon Cancer)
[2] = system: NCI-H226; test: SRB cytotoxicity screening assay (Non-Small Cell Lung Cancer)
[3] = system: HL-60(TB); conditions: HL-60(TB) (Leukemia); PG=0; 48 hour incubation
[4] = system: HT29; test: SRB cytotoxicity screening assay (Colon Cancer)
[5] = system: 26 cell lines; test: 26 cell line growth inhibition screen, sulforhodamine stain; assay type: cell-based; conditions: 48 h
[6] = system: EKVX; test: SRB cytotoxicity screening assay (Non-Small Cell Lung Cancer)
[7] = system: MDA-MB-231/ATCC; test: SRB cytotoxicity screening assay (Breast Cancer)
[8] = system: SK-MEL-2; test: SRB cytotoxicity screening assay (Melanoma)
[9] = system: COLO 205; test: SRB cytotoxicity screening assay (Colon Cancer)
[10] = system: HCT-116; test: SRB cytotoxicity screening assay (Colon Cancer)
[11] = system: UO-31; test: SRB cytotoxicity screening assay (Renal Cancer)
[12] = system: CCRF-CEM; test: SRB cytotoxicity screening assay (Leukemia); conditions: for Log10 TGI: PG=0
[13] = system: SNB-19; test: SRB cytotoxicity screening assay (CNS Cancer)
[14] = system: MALME-3M; test: SRB cytotoxicity screening assay (Melanoma)
[15] = system: HL-60(TB); test: cells; conditions: Homo sapiens, HL-60, 48 h
[16] = system: MOLT-4; test: SRB cytotoxicity screening assay (Leukemia)
[17] = system: K-562; test: SRB cytotoxicity screening assay (Leukemia)
[18] = system: OVCAR-3; test: SRB cytotoxicity screening assay (Ovarian)
[19] = system: HCC-2998; test: SRB cytotoxicity screening assay (Colon Cancer)
[20] = system: SF-539; test: SRB cytotoxicity screening assay (CNS Cancer)
[21] = system: 786-0; test: SRB cytotoxicity screening assay (Renal Cancer)
[22] = system: U251; test: SRB cytotoxicity screening assay (CNS Cancer)
[23] = system: MCF7/ADR-RES; test: SRB cytotoxicity screening assay (Breast Cancer)
[24] = system: LOX-IMVI; conditions: LOX-IMVI (Melanoma); PG=0; 48 hour incubation
[25] = system: KM12; test: SRB cytotoxicity screening assay (Colon Cancer)

Question: What does the source list for CCCCCC(=O)O[C@H]1C[C@H]2OC[C@@]2(OC(C)=O)[C@H]2[C@H](OC(=O)c3ccccc3)[C@]3(O)C[C@H](OC(=O)[C@H](O)[C@@H](NC(=O)c4ccccc4)c4ccccc4)C(C)=C([C@@H](OC(C)=O)C(=O)[C@]12C)C3(C)C [7-hexanoyltaxol]?
Answer: GI50 ([1]; Homo sapiens, SW-620, 48 h, read-out: Log10 GI50 (converted)): < 10 nM; CC50 ([1]; Homo sapiens, SW-620, 48 h, read-out: Log10 LC50 (converted)): > 100000 nM; Log10 TGI ([1]; SW-620 (Colon Cancer), PG=0, 48 hour incubation): >−4.00 molar; GI50 ([2]; Homo sapiens, NCI-H226, 48 h, read-out: Log10 GI50 (converted)): < 10 nM; CC50 ([2]; Homo sapiens, NCI-H226, 48 h, read-out: Log10 LC50 (converted)): > 100000 nM; Log10 TGI ([2]; NCI-H226 (Non-Small Cell Lung Cancer), PG=0, 48 hour incubation): −4.76 molar; Log10 TGI [3]: <−8.00 molar; Log10 TGI ([4]; HT29 (Colon Cancer), PG=0, 48 hour incubation): −4.95 molar; GI50 ([4]; Homo sapiens, HT-29, 48 h, read-out: Log10 GI50 (converted)): < 10 nM; CC50 ([4]; Homo sapiens, HT-29, 48 h, read-out: Log10 LC50 (converted)): 33100 nM; IC50 ([5]; read-out: Mean IC50 (26 cell line Mean Growth inhibition IC50 value)): 8 ng/mL (≈ 8.4 nM); IC50 ([5]; read-out: Min IC50 (lowest observed IC50 value in 26 cell line screen)): 1 ng/mL (≈ 1.05 nM); Log10 TGI ([6]; EKVX (Non-Small Cell Lung Cancer), PG=0, 48 hour incubation): −4.29 molar; GI50 ([6]; Homo sapiens, EKVX, 48 h, read-out: Log10 GI50 (converted)): 398 nM; CC50 ([6]; Homo sapiens, EKVX, 48 h, read-out: Log10 LC50 (converted)): > 100000 nM; GI50 ([7]; Homo sapiens, MDA-MB-231, 48 h, read-out: Log10 GI50 (converted)): 28.2 nM; CC50 ([7]; Homo sapiens, MDA-MB-231, 48 h, read-out: Log10 LC50 (converted)): 23400 nM; Log10 TGI ([7]; MDA-MB-231/ATCC (Breast Cancer), PG=0, 48 hour incubation): −6.13 molar; GI50 ([8]; Homo sapiens, SK-MEL-2, 48 h, read-out: Log10 GI50 (converted)): 93.3 nM; CC50 ([8]; Homo sapiens, SK-MEL-2, 48 h, read-out: Log10 LC50 (converted)): > 100000 nM; Log10 TGI ([8]; SK-MEL-2 (Melanoma), PG=0, 48 hour incubation): −4.56 molar; Log10 TGI ([9]; COLO 205 (Colon Cancer), PG=0, 48 hour incubation): −7.38 molar; GI50 ([9]; Homo sapiens, COLO 205, 48 h, read-out: Log10 GI50 (converted)): < 10 nM; CC50 ([9]; Homo sapiens, COLO 205, 48 h, read-out: Log10 LC50 (converted)): 26300 nM; Log10 TGI ([10]; HCT-116 (Colon Cancer), PG=0, 48 hour incubation): −4.94 molar; GI50 ([10]; Homo sapiens, HCT-116, 48 h, read-out: Log10 GI50 (converted)): < 10 nM; CC50 ([10]; Homo sapiens, HCT-116, 48 h, read-out: Log10 LC50 (converted)): > 100000 nM; GI50 ([11]; Homo sapiens, UO-31, 48 h, read-out: Log10 GI50 (converted)): 64.6 nM; CC50 ([11]; Homo sapiens, UO-31, 48 h, read-out: Log10 LC50 (converted)): > 100000 nM; Log10 TGI ([11]; UO-31 (Renal Cancer), PG=0, 48 hour incubation): >−4.00 molar; Log10 TGI ([12]; CCRF-CEM (Leukemia), 48 hour incubation): −6.1 molar; Log10 TGI ([12]; CCRF-CEM (Leukemia), 48 hour incubation, listed as 7-Hexanoyltaxol): <−8.00 molar; Log10 LC50 ([12]; CCRF-CEM (Leukemia), PG=−50, 48 hour incubation): >−4.00 molar; GI50 ([12]; Homo sapiens, CCRF-CEM, 48 h, read-out: Log10 GI50 (converted)): < 10 nM; CC50 ([12]; Homo sapiens, CCRF-CEM, 48 h, read-out: Log10 LC50 (converted)): > 100000 nM; IC50 ([12]; Homo sapiens, CCRF-CEM, read-out: concentration necessary to achieve primary growth inhibition (percentage growth +50)): ~100 nM; GI50 ([13]; Homo sapiens, SNB-19, 48 h, read-out: Log10 GI50 (converted)): 10.2 nM; CC50 ([13]; Homo sapiens, SNB-19, 48 h, read-out: Log10 LC50 (converted)): > 100000 nM; Log10 TGI ([13]; SNB-19 (CNS Cancer), PG=0, 48 hour incubation): −4.53 molar; GI50 ([14]; Homo sapiens, Malme-3M, 48 h, read-out: Log10 GI50 (converted)): < 10 nM; CC50 ([14]; Homo sapiens, Malme-3M, 48 h, read-out: Log10 LC50 (converted)): 81300 nM; Log10 TGI ([14]; MALME-3M (Melanoma), PG=0, 48 hour incubation): −4.65 molar; GI50 ([15]; read-out: Log10 GI50 (converted)): < 10 nM; CC50 ([15]; read-out: Log10 LC50 (converted)): > 100000 nM; GI50 ([16]; Homo sapiens, MOLT-4, 48 h, read-out: Log10 GI50 (converted)): < 10 nM; CC50 ([16]; Homo sapiens, MOLT-4, 48 h, read-out: Log10 LC50 (converted)): > 100000 nM; Log10 TGI ([16]; MOLT-4 (Leukemia), PG=0, 48 hour incubation): −4.69 molar; GI50 ([17]; Homo sapiens, K562, 48 h, read-out: Log10 GI50 (converted)): < 10 nM; CC50 ([17]; Homo sapiens, K562, 48 h, read-out: Log10 LC50 (converted)): > 100000 nM; Log10 TGI ([17]; K-562 (Leukemia), PG=0, 48 hour incubation): −7.05 molar; GI50 ([18]; Homo sapiens, OVCAR-3, 48 h, read-out: Log10 GI50 (converted)): < 10 nM; CC50 ([18]; Homo sapiens, OVCAR-3, 48 h, read-out: Log10 LC50 (converted)): 20900 nM; Log10 TGI ([18]; OVCAR-3 (Ovarian), PG=0, 48 hour incubation): −7.65 molar; Log10 TGI ([19]; HCC-2998 (Colon Cancer), PG=0, 48 hour incubation): −7.35 molar; GI50 ([19]; Homo sapiens, HCC 2998, 48 h, read-out: Log10 GI50 (converted)): < 10 nM; CC50 ([19]; Homo sapiens, HCC 2998, 48 h, read-out: Log10 LC50 (converted)): 8320 nM; GI50 ([20]; Homo sapiens, SF-539, 48 h, read-out: Log10 GI50 (converted)): < 10 nM; CC50 ([20]; Homo sapiens, SF-539, 48 h, read-out: Log10 LC50 (converted)): 1510 nM; Log10 TGI ([20]; SF-539 (CNS Cancer), PG=0, 48 hour incubation): −7.32 molar; Log10 TGI ([21]; 786-0 (Renal Cancer), PG=0, 48 hour incubation): −4.88 molar; GI50 ([21]; Homo sapiens, 786-0, 48 h, read-out: Log10 GI50 (converted)): < 10 nM; CC50 ([21]; Homo sapiens, 786-0, 48 h, read-out: Log10 LC50 (converted)): 36300 nM; GI50 ([22]; Homo sapiens, U-251, 48 h, read-out: Log10 GI50 (converted)): < 10 nM; CC50 ([22]; Homo sapiens, U-251, 48 h, read-out: Log10 LC50 (converted)): 32400 nM; Log10 TGI ([22]; U251 (CNS Cancer), PG=0, 48 hour incubation): −4.98 molar; GI50 ([23]; Homo sapiens, MCF7, 48 h, read-out: Log10 GI50 (converted)): 1120 nM; CC50 ([23]; Homo sapiens, MCF7, 48 h, read-out: Log10 LC50 (converted)): > 100000 nM; Log10 TGI ([23]; MCF7/ADR-RES (Breast Cancer), PG=0, 48 hour incubation): −4.80 molar; Log10 TGI [24]: −4.68 molar; GI50 ([25]; Homo sapiens, KM12, 48 h, read-out: Log10 GI50 (converted)): < 10 nM; CC50 ([25]; Homo sapiens, KM12, 48 h, read-out: Log10 LC50 (converted)): > 100000 nM; Log10 TGI ([25]; KM12 (Colon Cancer), PG=0, 48 hour incubation): −4.90 molar
